Reference: patent US20210213104A1, “GLUCAGON AND GLP-1 CO-AGONISTS FOR THE TREATMENT OF CHRONIC KIDNEY DISEASE AND DIABETIC KIDNEY DISEASE IN TYPE 2 DIABETES” (MEDIMMUNE LIMITED, priority 2020, published 2021)
Where “and” joins values, the source holds several entries; their conditions need not be identical. Identical values can stand only once.

What was measured:
Assay type in all cases: in vivo, human
[1] = system: subjects with T2DM and renal impairment; experiment: Phase 2a: eGFR (CKD-EPI equation); settings: Day 33 / after 32 days
Source text: Inclusion criteria: • Male and female subjects, aged ≥18 years and <85 years at screening; • Body mass index (BMI) between 25 kg/m^2 and 40 kg/m^2 (inclusive) at screening; • HbA1c range of 6.5% to 10.5% (inclusive) at the time of screening; • Diagnosed with T2DM with glucose control managed with any insulin and/or oral therapy combination where no significant dose changes of oral therapy of more than 50% had occurred in the 3 months prior to screening (at least 50% of the subject N=20) enrolled were required to have been taking insulin at a total daily dose of ≥20 units); • Renal impairment with eGFR ≥30 and <60 mL/min/1.73 m^2 at screening. Approximately 16 subjects (40%) were required to have a screening eGFR ≥45 and <60 mL/min/1.73 m^2 (in order to ensure subjects at both ends of the moderate renal impairment spectrum were adequately represented). eGFR was determined by the chronic kidney disease-epidemiology collaboration (CKD-EPI) equation. (eGFR=141×min(SCr/κ, 1)^α×max (SCr/κ, 1)^[…]^Age×1.018 [if female]×1.159 [if Black]; wherein SCr (standardized serum creatinine)=mg/dL, κ=0.7 (females) or 0.9 (males), α=−0.329 (females) or −0.411 (males), min=indicates the minimum of SCr/κ or 1, max=indicates the maximum of SCr/κ or 1, and age=years)

[2] = system: subjects with T2DM and renal impairment; experiment: Phase 2a: adverse events
Description: Only serious adverse events (SAEs) associated with protocol-related procedures were collected form time of signature of informed consent until the stat of the treatment period. All adverse events (AEs) were collected during the treatment period and follow-up period (Day 60±5). AEs and SAEs were graded by severity and relationship to Cotadutide or placebo, and SAEs were assessed for relationship to protocol procedures.

[3] = system: subjects with T2DM and renal impairment; experiment: Phase 2a: mixed-meal tolerance test (MMTT) plasma glucose AUC; settings: for MMTT plasma glucose AUC4 h, LS Mean % Change / MMTT plasma glucose AUC4 h, Difference in LS Mean % Change (vs Placebo) / Percent Change from Baseline in MMTT plasma glucose AUC4 h, Mean / Percent Change from Baseline in MMTT plasma glucose AUC4 h, Median: Day −5 to Day 32; for MMTT plasma glucose AUC4 h, LS Mean % Change: ANCOVA; for MMTT plasma glucose AUC4 h, LS Mean % Change / MMTT plasma glucose AUC4 h, Difference in LS Mean % Change (vs Placebo) / Percent Change from Baseline in MMTT plasma glucose AUC4 h, Mean / Percent Change from Baseline in MMTT plasma glucose AUC4 h, Median / MMTT plasma glucose AUC4 h, Day 32, Mean / MMTT plasma glucose AUC4 h, Day 32, Median: ITT
Description: Cotadutide was titrated from 50 μg up to 300 μg and administered once daily by subcutaneous (SC) injection over 32 days.
Cotadutide was administered at 50 μg once daily for 4 days, followed by 100 μg daily for 7 days, 200 μg daily for 7 days, and 300 μg daily for 14 days (n=20). Placebo was administered one daily for 32 days (n=20). Cotadutide and placebo were administered in the morning. Dosing commenced following predose baseline vital signs, blood tests (including HbA1c), an electrocardiogram (ECG), body weight measurement, and bioimpedance spectroscopy (BIS). Subjects then returned for daily dosing or remained overnight locally until Day 5, and thereafter, had visits at weekly intervals until a maintenance dose of 300 μg was established. Thus, Cotadutide or placebo was administered at the study site by study personal for the first four doses and on site on Days 5, 12, 19, and 32. At all other times, subjects preformed dosing at home.
The effect of Cotadutide titrated up to a dose level of 300 μg on glucose control vs placebo after 32 days of treatment was assessed by a standardized mixed-meal tolerance test (MMTT) to determine the percentage change in glucose from area under the concentration-time curve (AUC) from baseline (Day −5) to the end of 32 days of treatment.
Following a minimum 8-hour fast, the subject underwent an MMTT, which involved the consumption of a standardized liquid meal (Ensure Plus, a nutritional supplement containing the components of fat, carbohydrate, and protein, which make up a standard MMTT) within 15 minutes, and timed serial blood samples were obtained for measurement of glucose through 240 minutes after consumption of the standardized meal (with no additional food intake during this time). Blood was drawn within 15 minutes before consuming the standardized liquid meal (i.e., “0 minutes”), and at 15, 30, 45, 60, 90, 120, 180, and 240 minutes (±5 minutes) after consumption. Blood sampling occurred as close as possible to the specified times for the MMTT. At Day 32, the serial blood sampling begins 2.5 hours after Cotadutide or placebo administration.
Subjects who used a quick acting or pre-mixed form of insulin with breakfast received their usual/current dose of breakfast-time insulin with the Ensure Plus milkshake i.e., dose reduction of insulin was not required. Subjects who carbohydrate counted or varied insulin dose in relation to meal type were advised that the Ensure Plus milkshake contained approximately 44.4 g of carbohydrate, 10.8 g of fat, and 13.8 g of protein and to adjust their insulin dose on this basis. The timing of insulin administration in relation to the Ensure Plus milkshake consumption was in accordance with the usual regimen used by the subject, e.g., if a subject injected insulin 30 minutes before breakfast, they were to inject insulin 30 minutes before the Ensure Plus milkshake.
The investigators also considered whether a dose reduction in insulin and/or sulfonylurea or glitinide was required for this fasting assessment on Day 32.
The change in the mixed-meal tolerance test (MMTT) plasma glucose AUC from the baseline (Day −5) to end of 32 days of treatment was evaluated in the ITT population using an analysis of covariance (ANCOVA) model. The model included fixed effect of treatment and baseline AUC as a covariate. The difference of the percent change in glucose AUC between the two treatment arms was compared with a two-sided significance level of 0.10.

Q: How did the “change in eGFR from baseline to end of dosing vs placebo” value [1] turn out when `CCCCCCCCCCCCCCCC(=O)N[C@@H](CCC(=O)NCCCC[C@H](NC(=O)[C@H](CC(=O)O)NC(=O)[C@H](CO)NC(=O)[C@@H](NC(=O)[C@H](Cc1ccccc1)NC(=O)[C@@H](NC(=O)CNC(=O)[C@H](CCC(N)=O)NC(=O)[C@H](CO)NC(=O)[C@@H](N)Cc1c[nH]cn1)[C@@H](C)O)[C@@H](C)O)C(=O)N[C@@H](CO)C(=O)N[C@@H](CCC(=O)O)C(=O)N[C@@H](Cc1ccc(O)cc1)C(=O)N[C@@H](CC(C)C)C(=O)N[C@@H](CC(=O)O)C(=O)N[C@@H](CO)C(=O)N[C@@H](CCC(=O)O)C(=O)N[C@@H](CCCNC(=N)N)C(=O)N[C@@H](C)C(=O)N[C@@H](CCCNC(=N)N)C(=O)N[C@@H](CC(=O)O)C(=O)N[C@@H](Cc1ccccc1)C(=O)N[C@H](C(=O)N[C@@H](C)C(=O)N[C@@H](Cc1c[nH]c2ccccc12)C(=O)N[C@@H](CC(C)C)C(=O)N[C@@H](CCC(=O)O)C(=O)N[C@@H](C)C(=O)NCC(=O)NCC(=O)O)C(C)C)C(=O)O` [Cotadutide] was run?
A: The value was “No statistically significant difference”.

Q: What about the “change in eGFR from baseline to end of dosing vs placebo” value ([1]; listed as cotadutide) of the same compound?
A: Its value is “no significant changes”.

Q: And the deaths ([2]; diabetic ketoacidosis and cholecystitis, deemed related)?
A: Its deaths is “one death”.

Q: What about the “Serious adverse events (SAEs) vs placebo” value ([2]; in vivo) of the same compound?
A: Its value is “balanced”.

Q: And the “TEAE that led to withdrawal” value ([2]; in vivo)?
A: Its value is “two subjects”.

Q: And the “incidence of overall TEAEs and product-related TEAEs vs placebo” value ([2]; in vivo)?
A: The value was “higher”.

Q: And the “most frequently reported TEAEs (preferred term)” value ([2]; in vivo)?
A: The value was “nausea, vomiting, diarrhea, and dyspepsia”.

Q: And the “nausea, frequency” value ([2]; in vivo)?
A: The value was 33%.

Q: And the “treatment-related AEs, frequency” value ([2]; in vivo)?
A: Its value is 71%.

Q: And the “vomiting, frequency” value ([2]; in vivo)?
A: The value was 24%.

Q: And the “MMTT plasma glucose AUC4 h, LS Mean % Change” value ([3]; Insulin Dose < 20 U/day)?
A: Its value is −27.16%.

Q: What about the “MMTT plasma glucose AUC4 h, LS Mean % Change” value ([3]; Insulin Dose ≥ 20 U/day) of the same compound?
A: The value was −25.313%.

Q: And the “MMTT plasma glucose AUC4 h, LS Mean % Change” value ([3]; Total)?
A: Its value is −26.71% and −26.7%.

Q: What about the “MMTT plasma glucose AUC4 h, LS Mean % Change” value ([3]; Total, listed as MEDI0382) of the same compound?
A: Its value is −26.71%.

Q: What about the “MMTT plasma glucose AUC4 h, LS Mean % Change” value ([3]; eGFR 30-44 mL/min/1.73 m^2) of the same compound?
A: Its value is −27.59%.

Q: What about the “MMTT plasma glucose AUC4 h, LS Mean % Change” value ([3]; eGFR 45-59 mL/min/1.73 m^2) of the same compound?
A: Its value is −27.95%.

Q: What about the “MMTT plasma glucose AUC4 h, Difference in LS Mean % Change (vs Placebo)” value ([3]; Insulin Dose < 20 U/day) of the same compound?
A: The value was −36.37%.

Q: What about the “Percent Change from Baseline in MMTT plasma glucose AUC4 h, Mean” value (“Percent Change from Baseline … Mean” for short) ([3]; Insulin Dose < 20 U/day) of the same compound?
A: The value was −31.99%.

Q: What about the “Percent Change from Baseline in MMTT plasma glucose AUC4 h, Median” value (from here on “Percent Change from Baseline … Median”) ([3]; Insulin Dose < 20 U/day) of the same compound?
A: The value was −36.99%.

Q: And the “MMTT plasma glucose AUC4 h, Difference in LS Mean % Change (vs Placebo)” value ([3]; Insulin Dose ≥ 20 U/day)?
A: Its value is −25.751%.

Q: What about the “Percent Change from Baseline … Mean” value ([3]; Insulin Dose ≥ 20 U/day) of the same compound?
A: Its value is −25.00%.

Q: And the “Percent Change from Baseline … Median” value ([3]; Insulin Dose ≥ 20 U/day)?
A: The value was −22.850%.

Q: What about the “MMTT plasma glucose AUC4 h, Difference in LS Mean % Change (vs Placebo)” value ([3]; Total) of the same compound?
A: The value was −30.38%.

Q: And the “Percent Change from Baseline … Mean” value ([3]; Total)?
A: The value was −27.719%.

Q: What about the “Percent Change from Baseline … Median” value ([3]; Total) of the same compound?
A: The value was −27.45%.

Q: And the “MMTT plasma glucose AUC4 h, Difference in LS Mean % Change (vs Placebo)” value ([3]; eGFR 30-44 mL/min/1.73 m^2)?
A: Its value is −31.64%.

Q: And the “Percent Change from Baseline … Mean” value ([3]; eGFR 30-44 mL/min/1.73 m^2)?
A: The value was −24.41%.

Q: And the “Percent Change from Baseline … Median” value ([3]; eGFR 30-44 mL/min/1.73 m^2)?
A: Its value is −22.90%.

Q: What about the “MMTT plasma glucose AUC4 h, Difference in LS Mean % Change (vs Placebo)” value ([3]; eGFR 45-59 mL/min/1.73 m^2) of the same compound?
A: The value was −32.87%.

Q: And the “Percent Change from Baseline … Mean” value ([3]; eGFR 45-59 mL/min/1.73 m^2)?
A: Its value is −29.83%.

Q: And the “Percent Change from Baseline … Median” value ([3]; eGFR 45-59 mL/min/1.73 m^2)?
A: Its value is −37.00%.

Q: What about the “MMTT plasma glucose AUC4 h, Day 32, Mean” value ([3]; Insulin Dose < 20 U/day) of the same compound?
A: Its value is 594.85 mg·h/dL.

Q: And the “MMTT plasma glucose AUC4 h, Day 32, Median” value ([3]; Insulin Dose < 20 U/day)?
A: Its value is 599.41 mg·h/dL.

Q: And the “MMTT plasma glucose AUC4 h, Day 32, Mean” value ([3]; Insulin Dose ≥ 20 U/day)?
A: Its value is 679.23 mg·h/dL.

Q: And the “MMTT plasma glucose AUC4 h, Day 32, Median” value ([3]; Insulin Dose ≥ 20 U/day)?
A: The value was 700.08 mg·h/dL.

Q: And the “MMTT plasma glucose AUC4 h, Day 32, Mean” value ([3]; Total)?
A: Its value is 646.42 mg·h/dL.

Q: And the “MMTT plasma glucose AUC4 h, Day 32, Median” value ([3]; Total)?
A: Its value is 619.33 mg·h/dL.

Q: And the “MMTT plasma glucose AUC4 h, Day 32, Mean” value ([3]; eGFR 30-44 mL/min/1.73 m^2)?
A: Its value is 618.21 mg·h/dL.

Q: What about the “MMTT plasma glucose AUC4 h, Day 32, Median” value ([3]; eGFR 30-44 mL/min/1.73 m^2) of the same compound?
A: The value was 700.10 mg·h/dL.

Q: And the “MMTT plasma glucose AUC4 h, Day 32, Mean” value ([3]; eGFR 45-59 mL/min/1.73 m^2)?
A: Its value is 664.37 mg·h/dL.

Q: What about the “MMTT plasma glucose AUC4 h, Day 32, Median” value ([3]; eGFR 45-59 mL/min/1.73 m^2) of the same compound?
A: Its value is 605.70 mg·h/dL.

Q: What about the “postprandial plasma glucose concentrations on Day 32” value ([3]; pre-standardized liquid meal to 180 minutes post meal) of the same compound?
A: Its value is “lower than placebo”.
